Measured values: patent publication US20240252527A9, “NUCLEOSIDE DRUGS FOR THE TREATMENT OR PREVENTION OF CORONAVIRUS INFECTION AND THEIR USES” (Miracure Biotechnology Limited, priority 2022, published 2024)
Read-outs that look alike come from different tables or passages of the source.

Assays:
[1] = test system: OC43; test: OC43 Huh7 CPE assay (cytopathic experiment); assay type: cell-based, coronavirus OC43 (HCoV-OC43); details: for EC50: read-out: OC43 Huh7 CPE assay (μM) EC50; for EC90: read-out: OC43 Huh7 CPE assay (μM) EC90
Procedure: (§1) Cells were seeded into microplates at a certain density and cultured overnight in a incubator at 5% CO2, 37° C. The next day, double-diluted compound and virus were added. It was set up a cell control group (cells without treatment with a compound or virus infection), a virus control group (cells infected with virus, no compound treatment) and a culture medium control group (medium only). Cells were cultured in the incubator for 3 days (229E) or 7 days (OC43). Cytotoxicity experiments were performed under the same conditions as antiviral experiments, but without virus infection. Cell viability was tested using a cell viability assay kit Cell Titer Glo (Promega).
(§2) The antiviral activity and cytotoxicity of the compounds were expressed by the inhibition rate (%) and cell viability (%) of the compounds against virus-induced cytopathic effects at different concentrations, respectively. Nonlinear fitting analysis on the inhibition rate and cell viability of the compounds were carried out with the GraphPad Prism, and the half effective concentration (EC50), the […] effective concentration (EC90), the half cytotoxic concentration (CC50) and the 90% cytotoxic concentration of the compound […] values were calculated.

[2] = test system: 229E; test: 229E MRC5 CPE assay (cytopathic experiment); assay type: cell-based, coronavirus 229E (HCoV-229E)
Procedure: as §1, §2

[3] = Betacoronavirus 1, OC43, Huh-7, 168 h
[4] = Human coronavirus 229E, MRC5, 72 h, read-out: 229E MRC5 CPE assay (μM) EC50
[5] = Human coronavirus 229E, MRC5, 72 h, read-out: 229E MRC5 CPE assay (μM) EC90
[6] = Human coronavirus 229E, MRC5, 72 h; read-out: 229E MRC5 CPE assay (μM) EC50
[7] = Human coronavirus 229E, MRC5, 72 h; read-out: 229E MRC5 CPE assay (μM) EC90
[8] = Betacoronavirus 1, Huh-7, 168 h, Huh7 cells, OC43 virus, 7 days, Cell Titer Glo

| Compound | EC50 [1, 3] [µM] | EC90 [1, 3] [µM] | EC50 [2, 4] [µM] | EC90 [2, 5] [µM] | EC50 [2, 6] [µM] | EC90 [2, 7] [µM] | EC50 [1, 8] [µM] | EC90 [1, 8] [µM] |
| --- | --- | --- | --- | --- | --- | --- | --- | --- |
| [2H]c1cc([C@]2(C#N)O[C@@H]3CO[P@](=O)(O)O[C@H]3[C@H]2OC(=O)C(CCC)CCC)n2ncnc(N)c12 [Compound 208] | 0.1 to 0.5 | 0.1 to 0.5 | > 0.5 | > 0.5 | – | – | – | – |
| CCCC(CCC)C(=O)OCO[P@](=O)(N[C@@H](C)C(=O)OC(C)C)OC[C@H]1O[C@@](C#N)(c2ccc3c(N)ncnn23)[C@H](O)[C@@H]1O [Compound 074] | < 0.1 | 0.1 to 0.5 | < 0.1 | < 0.1 | – | – | – | – |
| CCC(CC)COC(=O)[C@H](C)NP(=O)(OCOC(=O)c1cccnc1)OC[C@H]1O[C@@](C#N)(c2ccc3c(N)ncnn23)[C@H](O)[C@@H]1O (stereo partly drawn) [Compound 175] | > 0.5 | > 0.5 | > 0.5 | > 0.5 | – | – | – | – |
| CCCN(CCC)S(=O)(=O)c1ccc(C(=O)O[C@@H]2[C@@H]3OP(=O)(O)OC[C@H]3O[C@@]2(C#N)c2ccc3c(N)ncnn23)cc1 [Compound 158] | > 0.5 | > 0.5 | > 0.5 | > 0.5 | – | – | – | – |
| CCCC(CCC)C(=O)OCO[P@@](=O)(OC[C@H]1O[C@@](C#N)(c2ccc3c(N)ncnn23)[C@H](O)[C@@H]1O)Oc1ccc(C[C@H](NC(=O)OCc2ccccc2)C(=O)OC2CCCC2)cc1 [Compound 227] | > 0.5 | > 0.5 | – | – | > 0.5 | > 0.5 | – | – |
| CC(C)OC(=O)C(C)(C)N[P@@](=O)(OCOC(=O)CCCc1ccccc1)OC[C@H]1O[C@@](C#N)(c2ccc3c(N)ncnn23)[C@H](O)[C@@H]1O [Compound 269] | > 0.5 | > 0.5 | > 0.5 | > 0.5 | – | – | – | – |
| CCCC(CCC)C(=O)OCO[P@](=O)(N[C@@H](C)C(=O)OC)OC[C@H]1O[C@@](C#N)(c2ccc3c(N)ncnn23)[C@H](O)[C@@H]1O [Compound 095] | < 0.1 | 0.1 to 0.5 | < 0.1 | 0.1 to 0.5 | – | – | – | – |
| [2H]c1cc([C@]2(C#N)O[C@@H]3CO[P@@](=O)(OCOC(=O)C(CCC)CCC)O[C@H]3[C@H]2O)n2ncnc(N)c12 [Compound 211] | 0.1 to 0.5 | > 0.5 | < 0.1 | < 0.1 | – | – | – | – |
| CCC(CC)COC(=O)[C@H](C)NP(=O)(OC[C@H]1O[C@@](C#N)(c2ccc3c(N)ncnn23)[C@H](O)[C@@H]1O)Oc1cc(N)ccc1C(=O)OC (stereo partly drawn) [Compound 128] | – | – | – | – | > 0.5 | > 0.5 | > 0.5 | > 0.5 |
| [2H]c1cc([C@]2(C#N)O[C@@H]3CO[P@@](=O)(OCCSC(=O)C(C)(C)C)O[C@H]3[C@H]2O)n2ncnc(N)c12 [Compound 239] | < 0.1 | 0.1 to 0.5 | < 0.1 | < 0.1 | – | – | – | – |
| CCCC(CCC)C(=O)OCO[P@](=O)(NC(C)(C)C(=O)OCC(CC)CC)OC[C@H]1O[C@@](C#N)(c2ccc3c(N)ncnn23)[C@H](O)[C@@H]1O [Compound 120] | < 0.1 | 0.1 to 0.5 | < 0.1 | 0.1 to 0.5 | – | – | – | – |
| CCCC(CCC)C(=O)OCO[P@](=O)(OC[C@H]1O[C@@](C#N)(c2ccc3c(N)ncnn23)[C@H](O)[C@@H]1O)Oc1ccc(C[C@H](NC(=O)OCc2ccccc2)C(=O)OC2CCCC2)cc1 [Compound 226] | > 0.5 | > 0.5 | – | – | > 0.5 | > 0.5 | – | – |
| CCC(CC)COC(=O)[C@H](C)N[P@@](=O)(OCOC(=O)c1cccnc1)OC[C@H]1O[C@@](C#N)(c2ccc3c(N)ncnn23)[C@H](O)[C@@H]1O [Compound 174] | > 0.5 | > 0.5 | > 0.5 | > 0.5 | – | – | – | – |
| CCN(CC)Cc1cc(Nc2ccnc3cc(Cl)ccc23)ccc1O[P@](=O)(N[C@@H](C)C(=O)OC)OC[C@H]1O[C@@](C#N)(c2ccc3c(N)ncnn23)[C@H](O)[C@@H]1O [Compound 087] | – | – | – | – | > 0.5 | > 0.5 | > 0.5 | > 0.5 |
| CCC(CC)COC(=O)[C@H](C)N[P@@](=O)(OC[C@H]1O[C@@](C#N)(c2ccc3c(N)ncnn23)[C@H](O)[C@@H]1O)Oc1ccc(Nc2ccnc3cc(Cl)ccc23)cc1CN(CC)CC [Compound 063] | – | – | – | – | > 0.5 | > 0.5 | > 0.5 | > 0.5 |
